Counter-ions that a name gives are not always drawn. Like-named read-outs stand apart in the source and are kept apart here.

One assay deals with dopamine D2 receptors (Rattus norvegicus, UniProt P61169). The assay is described as follows: biochemical. It is filed as binding. On the procedure: Inhibition of ^3 H-Spiroperidol Binding to Dopamine D2 Receptors in Rat Corpus Striatum in vitro
By this method the inhibition by drugs of the binding of ^3 H-spiroperidol (0.5 nM) to dopamine D2 receptors in membranes from rat corpus striatum is determined in vitro.

The next assay deals with T1, 5-HT2 receptors (Rattus norvegicus, UniProt P14842).
T1 construct: 5-HT2 Receptors in Rat Cortex in vitro; from tissue; host or cells: rat cortex membranes
T1 sequence (P14842 whole entry): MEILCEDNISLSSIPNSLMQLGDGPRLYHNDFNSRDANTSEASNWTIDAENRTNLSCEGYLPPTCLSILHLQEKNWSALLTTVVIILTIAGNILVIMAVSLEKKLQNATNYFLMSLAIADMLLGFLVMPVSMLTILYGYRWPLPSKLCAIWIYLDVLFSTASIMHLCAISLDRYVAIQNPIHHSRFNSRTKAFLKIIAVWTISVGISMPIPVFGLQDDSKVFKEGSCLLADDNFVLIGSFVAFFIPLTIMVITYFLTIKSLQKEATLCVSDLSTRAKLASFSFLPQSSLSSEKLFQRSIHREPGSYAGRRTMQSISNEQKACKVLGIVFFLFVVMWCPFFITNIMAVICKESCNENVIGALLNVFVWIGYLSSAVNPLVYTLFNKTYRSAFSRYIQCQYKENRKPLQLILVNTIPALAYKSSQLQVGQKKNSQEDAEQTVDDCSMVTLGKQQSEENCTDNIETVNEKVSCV
Put plainly: Inhibition of ^3 H-Ketanserin Binding to 5-HT2 Receptors in Rat Cortex in vitro. On the procedure: Inhibition of ^3 H-Ketanserin Binding to 5-HT2 Receptors in Rat Cortex in vitro
By this method the inhibition by drugs of the binding of ^3 H-Ketanserin (0,5 nM) to 5-HT2 receptors in membranes from rat is determined in vitro. The method is described in Hyttel, Pharmacol. & Toxicol.

The mark [1] stands for this setting: ^3 H-spiroperidol 0.5 nM, rat corpus striatum membranes, read-out: Dopamin D2 binding ^3 H spiroperidol, IC50.
[2] abbreviates: ^3 H-Ketanserin 0,5 nM, rat cortex membranes, read-out: 5-HT2 binding ^3 H ketanserin, IC50.
Where [3] appears, read: read-out: Dopamin D2 binding ^3 H spiroperidol, IC50.

Chain of dopamine D2 receptors (P61169 whole entry): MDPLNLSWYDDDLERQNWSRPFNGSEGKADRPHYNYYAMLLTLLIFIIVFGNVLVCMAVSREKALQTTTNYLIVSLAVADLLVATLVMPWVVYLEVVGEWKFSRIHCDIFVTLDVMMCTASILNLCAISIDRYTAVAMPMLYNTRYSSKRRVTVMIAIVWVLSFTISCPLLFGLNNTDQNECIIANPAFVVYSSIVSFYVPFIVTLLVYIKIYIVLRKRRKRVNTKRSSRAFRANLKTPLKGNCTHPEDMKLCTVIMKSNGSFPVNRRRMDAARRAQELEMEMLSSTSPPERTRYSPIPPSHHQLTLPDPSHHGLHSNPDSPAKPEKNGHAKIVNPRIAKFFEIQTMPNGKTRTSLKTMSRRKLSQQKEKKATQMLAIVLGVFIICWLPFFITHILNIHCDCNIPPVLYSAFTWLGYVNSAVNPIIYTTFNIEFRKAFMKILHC

What is called IC50 is the concentration that gives 50% inhibition. In the case of `C#CCN(CCOc1cn(-c2ccc(F)cc2)c2ccc(Cl)cc12)CCN1CCNC1=O` [Compound 4d, 1-[2-[[2-[5-Chloro-1-(4-fluorophenyl)-3-1H-indolyloxy]ethyl](3-propynyl)amino]ethyl]-2-imidazolidinone oxalate], the concentration for half-maximal inhibition (IC50) is 0.19 µM at dopamine D2 receptors (setting [1]) and 0.22 µM on 5-HT2 receptors (setting [2]).

Turning to `CN1CCCC1COc1cn(-c2ccc(F)cc2)c2ccc(Cl)cc12` (stereo in doubt) [Compound 7b, (S)-1-Methyl-2-pyrrolidinylmethoxy-5-chloro-1-(4-fluorophenyl)-1H-indole oxalate], the concentration for half-maximal inhibition (IC50) was 0.018 µM at dopamine D2 receptors (setting [1]) and 0.0082 µM at 5-HT2 receptors (read-out: 5-HT2 binding ^3 H ketanserin, IC50, ^3 H-Ketanserin 0,5 nM, rat cortex membranes).

For `Cc1c(OCCN(C)C)c2cc(Cl)ccc2n1-c1ccc(F)cc1` [Compound 10, N,N-Dimethyl-2-[5-chloro-1-(4-fluorophenyl)-2-methyl-3-1H-indolyloxy]ethylamine Oxalate], the half-maximal inhibitory concentration (IC50) at dopamine D2 receptors (setting [3]) was 0.083 µM; at 5-HT2 receptors (setting [2]), 0.011 µM.

As to `CN(CCOc1cn(-c2ccc(F)cc2)c2cc(Cl)ccc12)CCN1CCNC1=O` [Compound 4h, 1-[2-[[2-[6-chloro-1-(4-fluorophenyl)-3-1H-indolyloxy]ethyl]methylamino]ethyl]-2-imidazolidinone], the IC50 on dopamine D2 receptors (setting [1]) came out at 0.2 µM; on 5-HT2 receptors (setting [2]) it was 0.002 µM.

As for `Fc1ccc(-n2cc(OCCN3CCCC3)c3ccc(Cl)cc32)cc1` [Compound 4o, 6-Chloro-1-(4-fluorophenyl)-2-(1-pyrrolidinyl)ethoxy-1H-indole], the IC50 was found to be 0.023 µM at dopamine D2 receptors (setting [1]) and 0.03 µM on 5-HT2 receptors.

As to `CN1CCC[C@H]1COc1cn(-c2ccc(F)cc2)c2ccc(Cl)cc12` [Compound 7a, (S)-1-Methyl-2-pyrrolidinylmethoxy-5-chloro-1-(4-fluorophenyl)-1H-indole Oxalate], the IC50 was 0.03 µM on dopamine D2 receptors (setting [1]) and 0.018 µM on 5-HT2 receptors (setting [2]).

`O=C1NCCN1CCN1CCC[C@@H]1COc1cn(-c2ccc(F)cc2)c2ccc(Cl)cc12` [Compound 8a, (R)-1-[2-[2-[5-Chloro-1-(4-fluorophenyl)-3-1H-indolyloxymethyl]-1-pyrrolidinyl]ethyl]-2-imidazolidinone Oxalate]: the 50% inhibitory concentration (IC50) at dopamine D2 receptors (setting [3]) was found to be 0.0081 µM; at 5-HT2 receptors (setting [2]), 0.049 µM.

As for `CN(C)CCOc1cn(-c2ccc(F)cc2)c2ccc(C#N)cc12` [Compound 17a, N,N-Dimethyl-2-[5-cyano-1-(4-fluorophenyl)-1H-indol-3-yloxy]ethylamine, Hydrochloride], the figures for the IC50 at dopamine D2 receptors (setting [3]) and on 5-HT2 receptors (setting [2]) were 0.00098 µM and 0.021 µM, respectively.

For the molecule `CNCCc1cn(-c2ccc(F)cc2)c2ccc(Cl)cc12` [Compound 15a, N-methyl-2-(5-chloro-1-(4-fluorophenyl)-3-1H-indolyl)ethylamine Maleate], the IC50 is 0.024 µM on dopamine D2 receptors and 0.017 µM on 5-HT2 receptors (setting [2]).

Regarding `CN(C)CCCc1cn(-c2ccc(F)cc2)c2ccc(Cl)cc12` [Compound 3a, N,N-Dimethyl-3-[5-chloro-1-(4-fluorophenyl)-3-1H-indolyl]propylamine fumarate], the IC50 at dopamine D2 receptors (setting [1]) stood at 0.042 µM; at 5-HT2 receptors (setting [2]) it was 0.019 µM.

For the molecule `CN(CCCc1cn(-c2ccc(F)cc2)c2ccc(Cl)cc12)CCN1CCNC1=O` [Compound 3b, 1-[2-[[3-[5-chloro-1-(4-fluorophenyl)-3-1H-indolyl]propyl]methylamino]ethyl]-2-imidazolidinone fumarate], the half-maximal inhibitory concentration (IC50) at dopamine D2 receptors (setting [1]) was 0.19 µM; at 5-HT2 receptors (setting [2]), 0.0078 µM.

Turning to `Fc1ccc(-n2cc(OCCN3CCCCC3)c3ccc(Cl)cc32)cc1` [Compound 4p, 6-Chloro-1-(4-fluorophenyl)-2-(1-piperidinyl)ethoxy-1H-indole], the 50% inhibitory concentration (IC50) at dopamine D2 receptors (setting [1]) turned out to be 0.017 µM; at 5-HT2 receptors, 0.035 µM.

With `Fc1ccc(-n2cc(CCN3CCOCC3)c3cc(Cl)ccc32)cc1` [Compound 14c, 5-chloro-1-(4-fluorophenyl)-3-(2-(4-morpholinyl)ethyl)-1H-indole fumarate], the results for the IC50 against dopamine D2 receptors and on 5-HT2 receptors (setting [2]) were 0.054 µM and 0.022 µM, respectively.

Regarding `C[C@@H](CN(C)CCOc1cn(-c2ccc(F)cc2)c2ccc(Cl)cc12)N1CCNC1=O` [Compound 8b, (S)-1-[1-methyl-2-[[2-[5-chloro-1-(4-fluorophenyl)-3-1H-indolyloxy]ethyl]methylamino]ethyl]-2-imidazolidinone oxalate], the IC50 came out at 0.035 µM at dopamine D2 receptors (setting [3]) and 0.22 µM on 5-HT2 receptors (setting [2]).

For the molecule `CN(C)CCOc1cn(-c2ccc(F)cc2)c2ccc(Cl)cc12` [Compound 4a, N,N-Dimethyl-2-[5-chloro-1-(4-fluorophenyl)-3-1H-indolyloxy]ethylamine sesqui fumarate], the IC50 at dopamine D2 receptors (setting [1]) amounted to 0.0029 µM; on 5-HT2 receptors (setting [2]), 0.0042 µM.

Regarding `CN(C)Cc1cn(-c2ccc(F)cc2)c2ccc(Cl)cc12` [Compound 13a, N,N-Dimethyl-[5-chloro-1-(4-fluorophenyl)-3-1H-indolyl]methylamine Maleate], the IC50 on dopamine D2 receptors (setting [1]) came out at 0.019 µM; on 5-HT2 receptors (setting [2]), 0.012 µM.

For `CN(CCc1cn(-c2ccc(F)cc2)c2ccc(Cl)cc12)CCN1CCNC1=O` [Compound 4v, 1-[2-[[2-[5-chloro-1-(4-fluorophenyl)-3-1H-indolyl]ethyl]methylamino]ethyl]-2-imidazolidinone maleate], the IC50 at dopamine D2 receptors (setting [1]) came out at 0.025 µM; at 5-HT2 receptors (setting [2]), 0.0053 µM.

As to `CN(C)CCc1cn(-c2ccc(F)cc2)c2ccc(Cl)cc12` [Compound 14b, N,N-Dimethyl-2-(5-chloro-1-(4-fluorophenyl)-3-1H-indolyl)ethylamine maleate], the IC50 on dopamine D2 receptors (setting [3]) is 0.038 µM; on 5-HT2 receptors (setting [2]), 0.0089 µM.

As to `Fc1ccc(-n2cc(CCCN3CCOCC3)c3cc(Cl)ccc32)cc1` [Compound 3c, 5-Chloro-1-(4-fluorophenyl)-3-[3-(4-morpholinyl)propyl]-1H-indole maleate], the IC50 amounted to 0.026 µM on dopamine D2 receptors (setting [1]) and 0.31 µM on 5-HT2 receptors (setting [2]).

Take `Fc1ccc(-n2cc(OCCN3CCCCC3)c3cc(Cl)ccc32)cc1` [Compound 4e, 5-Chloro-1-(4-fluorophenyl)-3-[2-(1-piperidinyl)ethoxy]-1H-indole]: the results for the IC50 on dopamine D2 receptors (setting [1]) and on 5-HT2 receptors (setting [2]) were 0.0023 µM and 0.0059 µM, respectively.

As for `Fc1ccc(-n2cc(OCCN3CCOCC3)c3cc(Cl)ccc32)cc1` [Compound 4f, 5-Chloro-1-(4-fluorophenyl)-3-[2-(4-morpholinyl)ethoxy]-1H-indole maleate], the IC50 came to 0.027 µM at dopamine D2 receptors (setting [1]) and 0.048 µM on 5-HT2 receptors (setting [2]).

Take `CN(CCSc1cn(-c2ccc(F)cc2)c2ccc(Cl)cc12)CCN1CCNC1=O` [Compound 4r, 1-[2-[[2-[5-Chloro-1-(4-fluorophenyl)-3-1H-indolylthio]ethyl]methylamino]ethyl]-2-imidazolidinone]: the results for the IC50 against dopamine D2 receptors and at 5-HT2 receptors (setting [2]) were 0.77 µM and 0.086 µM, respectively.

For `CNCc1cn(-c2ccc(F)cc2)c2ccc(Cl)cc12` [Compound 13b, N-methyl-[5-chloro-1-(4-fluorophenyl)-3-1H-indolylmethyl]amine hydrochloride], the IC50 at dopamine D2 receptors (setting [3]) came out at 0.033 µM; at 5-HT2 receptors (setting [2]), 0.021 µM.

Turning to `CN(CCN1CCNC1=O)Cc1cn(-c2ccc(F)cc2)c2ccc(Cl)cc12` [Compound 4s, 1-[2-[[5-chloro-1-(4-fluorophenyl)-3-1H-indolylmethyl]methylamino]ethyl]-2-imidazolidinone], the values for the IC50 on dopamine D2 receptors (setting [1]) and at 5-HT2 receptors (setting [2]) were 0.022 µM and 0.02 µM, respectively.

Regarding `CNC(=O)C1CCN(CCOc2cn(-c3ccc(F)cc3)c3ccc(Cl)cc23)CC1` [Compound 4n, N-methyl-1-[2-[5-chloro-1-(4-fluorophenyl)-3-1H-indolyloxy]ethyl]4-piperidinecarboxamide], the figures for the half-maximal inhibitory concentration (IC50) at dopamine D2 receptors (setting [1]) and on 5-HT2 receptors (setting [2]) were 0.0047 µM and 0.028 µM, respectively.

On to `CN(C)CCOc1c(CO)n(-c2ccc(F)cc2)c2ccc(Cl)cc12` [Compound 9a, N,N-Dimethyl-2-[5-chloro-1-(4-fluorophenyl)-2-hydroxymethyl-3-1H-indolyloxy]ethylamine Hydrochloride], for which the IC50 was 0.43 µM at dopamine D2 receptors (setting [3]) and 0.038 µM at 5-HT2 receptors.

With `CN(CCOc1cn(-c2ccc(F)cc2)c2ccc(Cl)cc12)CCN1CCNC1=O` [Compound 4b, 1-[2-[[2-[5-chloro-1-(4-fluorophenyl)-3-1H-indolyloxy]ethyl]methylamino]ethyl]-2-imidazolidinone Maleate], the values for the IC50 on dopamine D2 receptors (setting [1]) and at 5-HT2 receptors (setting [2]) were 0.0058 µM and 0.00088 µM, respectively.

Regarding `CN(C)CCOc1cn(-c2ccc(F)cc2)c2cc(Cl)ccc12` [Compound 4j, N,N-Dimethyl-2-[6-chloro-1-(4-fluorophenyl)-3-1H-indolyloxy]ethylamine], the IC50 was found to be 0.063 µM on dopamine D2 receptors (setting [1]) and 0.017 µM on 5-HT2 receptors (setting [2]).

On to `CC(C)N1CCN(CCN(C)CCOc2cn(-c3ccc(F)cc3)c3cc(Cl)ccc23)C1=O` [Compound 4i, 1-[2-[[2-[6-Chloro-1-(4-fluorophenyl)-3-1H-indolyloxy]ethyl]methylamino]ethyl]-3-(2-propyl)-2-imidazolidinone oxalate], for which the values for the IC50 on dopamine D2 receptors (setting [3]) and at 5-HT2 receptors (setting [2]) were 0.12 µM and 0.0063 µM, respectively.

With `CN(C)C(C)(C)COc1cn(-c2ccc(F)cc2)c2ccc(Cl)cc12` [Compound 6c, N,N-Dimethyl-1,1-dimethyl-2-[5-chloro-1-(4-fluorophenyl)-3-1H-indolyloxy]ethylamine oxalate], the IC50 stood at 0.33 µM at dopamine D2 receptors (setting [3]) and 0.042 µM on 5-HT2 receptors (setting [2]).

In the case of `CN(C)CCOc1cn(-c2ccc(F)cc2)c2ccc(Br)cc12` [Compound 16a, N,N-Dimethyl-2-[5-bromo-1-(4-fluorophenyl)-1H-indol-3-yloxy]ethylamine, Hydrochloride], the IC50 came to 0.0062 µM at dopamine D2 receptors (setting [3]) and 0.007 µM on 5-HT2 receptors (setting [2]).
